Laboratory results reported in ChEMBL document CHEMBL5131387, “Discovery and computational studies of 2-phenyl-benzoxazole acetamide derivatives as promising P2Y14R antagonists with anti-gout potential” (Eur J Med Chem, 2022).
Active and inactive are the calls of the source. The rule behind the calls is not given here.

Key:
[1] = target: T1, P2Y purinoceptor 14 (Homo sapiens) (UniProt Q15391); test: Antagonist activity at human P2Y14R expressed in human HEK293 cells assessed as inhibition of cAMP level at 100 nM incubated for 30 mins by cAMP-glo assay relative to control; assay type: functional, cell-based
T1 sequence (whole entry): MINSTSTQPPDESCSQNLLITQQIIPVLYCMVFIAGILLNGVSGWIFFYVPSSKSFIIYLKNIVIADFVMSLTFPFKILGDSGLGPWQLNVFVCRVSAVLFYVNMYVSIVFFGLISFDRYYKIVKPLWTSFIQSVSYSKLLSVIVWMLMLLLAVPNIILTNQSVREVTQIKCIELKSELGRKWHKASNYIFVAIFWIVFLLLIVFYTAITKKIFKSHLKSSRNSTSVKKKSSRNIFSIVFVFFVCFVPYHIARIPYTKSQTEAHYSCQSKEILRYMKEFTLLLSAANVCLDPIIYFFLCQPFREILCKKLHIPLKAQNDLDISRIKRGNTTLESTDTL

P2Y purinoceptor 14 = target: T2, P2Y purinoceptor 14 (Homo sapiens, UniProt Q15391); test: Antagonist activity at human P2Y14R expressed in human HEK293 cells assessed as inhibition of cAMP level incubated for 30 mins by cAMP-glo assay; assay type: functional, cell-based
T2 sequence (Q15391 whole entry): T1 sequence (whole entry)

BMDM [2] = test: Antiinflammatory activity against MSU-induced C57BL/6 mouse BMDM cells assessed as inhibition of MSU-induced NLRP3 upregulation at 10 uM measured after 7 days by western blot analysis; assay type: functional, cell-based
Mus musculus [3] = test: Anti-inflammatory activity against air pouch inflammation ICR mouse model assessed as decrease in MSU-induced pyroptosis of air pouch macrophages by measuring early cells at 10 uM injected subcutaneously after 24 hrs of MSU stimulation and measured after 24 hrs by caspase-1/PI staining based flow cytometry (reference value: 13.6 %); assay type: functional; design: scale not given: the % may be the effect or the level left; conditions: route sc
BMDM [4] = test: Antiinflammatory activity against MSU-induced C57BL/6 mouse BMDM cells assessed as inhibition of MSU-induced GSDMD-NT upregulation at 10 uM measured after 7 days by western blot analysis; assay type: functional, cell-based
BMDM [5] = test: Antiinflammatory activity against MSU-induced C57BL/6 mouse BMDM cells assessed as inhibition of secretion of IL-1beta protein expression in supernatant at 10 uM measured after 7 days by western blot analysis; assay type: functional, cell-based
BMDM [6] = test: Antiinflammatory activity against MSU-induced C57BL/6 mouse BMDM cells assessed as inhibition of MSU-induced ASC upregulation at 10 uM measured after 7 days by western blot analysis; assay type: functional, cell-based
Mus musculus [7] = test: Anti-inflammatory activity against air pouch inflammation ICR mouse model assessed as decrease in MSU-induced pyroptosis of air pouch macrophages by measuring late cells at 10 uM injected subcutaneously after 24 hrs of MSU stimulation and measured after 24 hrs by caspase-1/PI staining based flow cytometry (Rvb =14.7 %); assay type: functional; design: scale not given: the % may be the effect or the level left; conditions: route sc
Mus musculus [8] = species on record: Mus musculus; test: Anti-arthritis activity against MSU-induced acute gout arthritis ICR mouse model assessed as reversal of GSDMD-NT upregulation in foot tissue at 10 uM by western blot analysis; assay type: functional, organism-based
BMDM [9] = test: Antiinflammatory activity against MSU-induced C57BL/6 mouse BMDM cells assessed as inhibition of MSU-induced ASC upregulation at 10 uM by measuring fluorescence intensity by immunofluorescence assay; assay type: functional, cell-based
BMDM [10] = test: Antiinflammatory activity against MSU-induced C57BL/6 mouse BMDM cells assessed as inhibition of MSU-induced NLRP3 upregulation at 10 uM by measuring fluorescence intensity by immunofluorescence assay; assay type: functional, cell-based
Mus musculus [11] = test: Anti-inflammatory activity against air pouch inflammation ICR mouse model assessed as decrease in MSU-induced pyroptosis of air pouch macrophages by measuring viable cells at 10 uM injected subcutaneously after 24 hrs of MSU stimulation and measured after 24 hrs by caspase-1/PI staining based flow cytometry (reference value: 45.5 %); assay type: functional; conditions: route sc
BMDM [12] = test: Antiinflammatory activity against MSU-induced C57BL/6 mouse BMDM cells assessed as inhibition of MSU-induced caspase-1 upregulation at 10 uM measured after 7 days by western blot analysis; assay type: functional, cell-based
Mus musculus [13] = species on record: Mus musculus; test: Anti-arthritis activity against MSU-induced acute gout arthritis ICR mouse model assessed as inhibition of NLRP3 inflammasome activation in foot tissue at 10 uM by microscopic analysis; assay type: functional, organism-based
Mus musculus [14] = species on record: Mus musculus; test: Anti-arthritis activity against MSU-induced acute gout arthritis ICR mouse model assessed as reduction in paw swelling at 10 uM measured at 6 to 24 hrs; assay type: functional, organism-based
Mus musculus [15] = test: Anti-inflammatory activity against air pouch inflammation ICR mouse model assessed as decrease in MSU-induced pyroptosis of air pouch macrophages by measuring necrotic cells at 10 uM injected subcutaneously after 24 hrs of MSU stimulation and measured after 24 hrs by caspase-1/PI staining based flow cytometry (Rvb =26.2 %); assay type: functional; design: scale not given: the % may be the effect or the level left; conditions: route sc

SMILES	inhibition ([1]; filed as antagonist) [%]	IC50 (P2Y purinoceptor 14) [nM]	further results
O=C(Cc1ccccc1Cl)Nc1cccc(-c2nc3ccccc3o2)c1	67.2	–	–
O=C(Cc1ccccc1Cl)Nc1cccc(-c2nc3cc(Cl)ccc3o2)c1	68.6	–	–
CCCCOc1ccc(CC(=O)Nc2cccc(-c3nc4cc(Cl)ccc4o3)c2)cc1	68	–	–
COc1ccccc1CC(=O)Nc1cccc(-c2nc3ccccc3o2)c1	83	12.2	–
O=C(O)c1cc(-c2ccc(C3CCNCC3)cc2)c2ccc(-c3ccc(C(F)(F)F)cc3)cc2c1 [PPTN]	–	–	Activity (BMDM [2]): Active; Activity (Mus musculus [3]): 15.4%; Activity (BMDM [4]): Active; Activity (BMDM [5]): Active; Activity (BMDM [6]): Active; Activity (Mus musculus [7]): 6.81%; Activity (Mus musculus [8]): Active; Activity (BMDM [9]): Active; Activity (BMDM [10]): Active; Activity (Mus musculus [11]): 60%; Activity (BMDM [12]): Active; Activity (Mus musculus [13]): Active; Activity (Mus musculus [14]): Active; Activity (Mus musculus [15]): 18.8%
COc1ccccc1CC(=O)Nc1cccc(-c2nc3cc(Cl)ccc3o2)c1	81	17.1	–
Cc1ccc2oc(-c3cccc(NC(=O)Cc4ccc(C(F)(F)F)cc4)c3)nc2c1	71.3	35.1	–
Cc1ccc(CC(=O)Nc2cccc(-c3nc4ccccc4o3)c2)cc1	85.6	8.7	–
O=C(Cc1ccc2c(c1)OCO2)Nc1cccc(-c2nc3cc(Cl)ccc3o2)c1	46.7	–	–
COc1ccc(CC(=O)Nc2cccc(-c3nc4cc(Cl)ccc4o3)c2)cc1	89	9.2	–
Cc1ccc(CC(=O)Nc2cccc(-c3nc4cc(C)ccc4o3)c2)cc1	72.7	18.5	–
O=C(Cc1cccc(OC(F)(F)F)c1)Nc1cccc(-c2nc3cc(Cl)ccc3o2)c1	84	12.6	–
Cc1ccc(CC(=O)Nc2ccc(-c3cc4ccccc4o3)cc2)cc1	72	42.4	–
CC(C)(C)c1ccc(CC(=O)Nc2ccc(-c3cc4ccccc4o3)cc2)cc1	–	–	inhibition [1]: 33%
COc1ccc(CC(=O)Nc2cccc(-c3nc4ccccc4o3)c2)cc1	98	2	Activity (BMDM [2]): Active; Activity (Mus musculus [3]): 8.73%; Activity (BMDM [4]): Active; Activity (BMDM [5]): Active; Activity (BMDM [6]): Active; Activity (Mus musculus [7]): 7.81%; Activity (Mus musculus [8]): Active; Activity (BMDM [9]): Active; Activity (BMDM [10]): Active; Activity (Mus musculus [11]): 68.5%; Activity (BMDM [12]): Active; Activity (Mus musculus [13]): Active; Activity (Mus musculus [14]): Active; Activity (Mus musculus [15]): 15%
Cc1ccc2oc(-c3cccc(NC(=O)Cc4cccc(Cl)c4)c3)nc2c1	44.1	–	–
O=C(Cc1ccccc1Br)Nc1cccc(-c2nc3ccccc3o2)c1	68.6	–	–
O=C(Cc1ccc(C(F)(F)F)cc1)Nc1cccc(-c2nc3ccccc3o2)c1	83.6	11.5	–
COc1cccc(CC(=O)Nc2cccc(-c3nc4ccccc4o3)c2)c1	83	24.3	–
Cc1ccc(CC(=O)Nc2cccc(-c3nc4cc(Cl)ccc4o3)c2)cc1	84.6	6.7	–
Cc1ccccc1CC(=O)Nc1cccc(-c2nc3ccccc3o2)c1	73.3	9.3	–
O=C(Cc1cccc(Cl)c1)Nc1cccc(-c2nc3cc(Cl)ccc3o2)c1	74.6	13.4	–
CC(C)(C)c1ccc(CC(=O)Nc2cccc(-c3nc4cc(Cl)ccc4o3)c2)cc1	57	–	–
O=C(Cc1ccccc1Br)Nc1cccc(-c2nc3cc(Cl)ccc3o2)c1	72.6	32.9	–

SMILES	inhibition ([1]; filed as antagonist) [%]	IC50 (P2Y purinoceptor 14) [nM]	further results
O=C(Cc1ccc2c(c1)OCO2)Nc1cccc(-c2nc3ccccc3o2)c1	63.3	–	–
Cc1ccc2oc(-c3cccc(NC(=O)Cc4cccc(C(F)(F)F)c4)c3)nc2c1	62.2	–	–
O=C(Cc1ccc2c(c1)OCO2)Nc1ccc(-c2cc3ccccc3o2)cc1	47	–	–
Cc1cccc(CC(=O)Nc2cccc(-c3nc4ccccc4o3)c2)c1	78.5	21.8	–
O=C(Cc1ccc(C(F)(F)F)cc1)Nc1cccc(-c2nc3cc(Cl)ccc3o2)c1	85.5	6.1	–
CCCCOc1ccc(CC(=O)Nc2ccc(-c3cc4ccccc4o3)cc2)cc1	61	–	–
CCCCOc1ccc(CC(=O)Nc2cccc(-c3nc4ccccc4o3)c2)cc1	86	12.3	–
O=C(Cc1cccs1)Nc1ccc(-c2cc3ccccc3o2)cc1	45	–	–
O=C(Cc1ccc(C(F)(F)F)cc1)Nc1ccc(-c2cc3ccccc3o2)cc1	57	–	–
O=C(Cc1cccc(OC(F)(F)F)c1)Nc1cccc(-c2nc3ccccc3o2)c1	80	16.2	–
COc1ccc(CC(=O)Nc2ccc(-c3cc4ccccc4o3)cc2)cc1	75	–	–
O=C(Cc1ccc(Br)cc1)Nc1ccc(-c2cc3ccccc3o2)cc1	47	–	–
CC(C)(C)c1ccc(CC(=O)Nc2cccc(-c3nc4ccccc4o3)c2)cc1	68	–	–
Cc1ccc2oc(-c3cccc(NC(=O)Cc4ccc5c(c4)OCO5)c3)nc2c1	55.1	–	–
O=C(Cc1cccc(Br)c1)Nc1cccc(-c2nc3ccccc3o2)c1	70.5	25.4	–
O=C(Cc1cccc(C(F)(F)F)c1)Nc1cccc(-c2nc3cc(Cl)ccc3o2)c1	79.7	27.5	–
O=C(Cc1ccc(OC(F)(F)F)cc1)Nc1cccc(-c2nc3cc(Cl)ccc3o2)c1	88	9.8	–
O=C(Cc1ccc(OC(F)(F)F)cc1)Nc1cccc(-c2nc3ccccc3o2)c1	91	4.8	–
Cc1ccc2oc(-c3cccc(NC(=O)Cc4ccccc4Br)c3)nc2c1	42.1	–	–
COc1cccc(CC(=O)Nc2cccc(-c3nc4cc(Cl)ccc4o3)c2)c1	82	23.8	–
O=C(Cc1ccc(Cl)cc1)Nc1ccc(-c2cc3ccccc3o2)cc1	51	–	–
Cc1cccc(CC(=O)Nc2cc(C)cc(-c3nc4cc(Cl)ccc4o3)c2)c1	86.9	9.7	–
O=C(CC1CCOCC1)Nc1ccc(-c2cc3ccccc3o2)cc1	–	–	inhibition [1]: 36%
